Tests used:
[1] = test system: standard screening panel of fifty-five GPCRs, enzymes, ion channels, and transporters; set-up: method as in PMID 26181715; settings: cited from earlier work
hERG channel = test system: hERG channel; set-up: method as in PMID 26181715; settings: cited from earlier work
[2] = Metabolic clearance in cynomolgus monkey hepatocytes; type: in vitro ADME; settings: male, cryopreserved hepatocytes, Cyno hepatocytes, read-out: Hepatocyte CLint (intrinsic clearance)
Method: All measurements were done in duplicate. Testosterone and 7-hydroxycoumarin were used as positive controls. Pooled cryopreserved human hepatocytes, cryopreserved male beagle dog hepatocytes, and cryopreserved male cynomolgus monkey hepatocytes were obtained from BioIVT (Baltimore, MD). Compound at 1 μM was incubated with 1 x 10^6 cells. Final DMSO concentration in the reaction mix was 0.1%. Aliquots (100 μL) of reaction mixtures were removed from the incubation plate at different timepoints and mixed with 150 μL of ice-cold acetonitrile. After incubation on ice for 15 min, the samples were centrifuged (3,600 rpm, 10 min, 4°C) to precipitate protein. The supernatants were diluted 1:1 (v/v) with water containing internal standards and subjected to the LC/MS analysis. Hepatic clearance was calculated using the well-stirred liver model

PXR = test system: PXR; set-up: method as in PMID 26181715; settings: cited from earlier work
[3] = test system: cytochrome (CYP) P450 enzymes; set-up: method as in PMID 26181715; settings: all standard CYP P450 enzymes; read-out: CYP inhibition IC50; cited from earlier work
[4] = set-up: method as in PMID 26181715; settings: rat liver microsomes; cited from earlier work
plasma RBP4 = assay: Plasma RBP4 lowering (ELISA) in cynomolgus monkey; type: in vivo
Method: Pharmacokinetic studies were conducted in male beagle dogs and male cynomolgus monkeys at SRI International, Menlo Park, CA. General procedures for animal care and housing were in accordance with the National Research Council (NRC) Guide for the Care and Use of Laboratory Animals (1996) and the Animal Welfare Standards incorporated in 9 CFR Part 3, 1991 and complied with guidelines set forth by the ARVO Animal Statement for the Use of Animals in Ophthalmic and Vision Research. During the course of the PK experiments, cynomolgus monkeys were individually housed in stainless steel primary enclosures in an AAALAC-accredited facility. Animals were fed a commercial monkey chow, and supplemental food was provided (fresh fruits, vegetables, seeds, and nuts). Reverse osmosis-purified drinking water was available at all times. Cynomolgus monkeys were maintained on a 12:12 hour light:dark cycle at the 64–84°F temperature and 30–70% humidity. Monkeys had access to enrichment opportunities (grooming devices, foraging devices, activity panels and mirrors) and were provided auditory stimuli and human interaction enrichment throughout the study. Blood samples were collected by venipuncture of a peripheral vein. Animals were acclimated to the squeeze back mechanism in their home cage by repeated, short periods of restraint during general husbandry procedures for at least 2 weeks prior to dosing. Animal were not removed from their cages for collection, and no anesthesia/analgesic agents were used for blood collection. […] For PK experiments, beagle dogs were individually housed in enclosed run (≥ 4 ft x 6 ft). Dogs were exposed to their daily ration of food, Harlan Teklad 2025C Certified Global 25% Protein Dog Diet. Water was provided from the public water supply (municipal tap water) ad libitum. Dogs were maintained on a 12:12 hour light:dark cycle at the 72–73°F temperature and 40–71% humidity. Every effort was made to minimize, if not eliminate, pain and suffering in all animals in this study. No restraining devices were used in blood collecting procedures. Dogs were gentle hand-held to restrain by trained technicians with the dogs foreleg extended for sample collection of blood from cephalic vein. Animals were awake during blood sample collection with no anesthesia/analgesic agents used, and positive reinforcement by the technician was provided following collection. […] All dogs were released back to the colony after the study was completed. Male beagle dogs and male cynomolgus monkey received a single i.v. dose of a test compound at 0.5 mg kg^−1 (dog) and 1 mg kg^−1 (monkey) or a single p.o. dose of a test compound of at 2 mg kg^−1 (dog) and 5 mg kg^−1 (monkey). The number of animals that was used in PK experiments is 3 per study group. Intravenous administration vehicle was 3% DMA/45% PEG300/12% ethanol/40% sterile water; p.o. vehicle was 2% Tween 80 in 0.9% saline. Blood was collected from dogs and monkeys at pre-dose and at 5, 15 and 30 min, and 1, 2, 4, 6, 8, 12, 24, 36 and 48 h post-dose in the i.v. arms and at 15 and 30 min, and 1, 2, 4, 6, 8, 12, 24, 36 and 48 h post-dose in the p.o. arm. […] Following protein extraction with acetonitrile, compound concentrations in plasma were measured by LC-MS/MS. The plasma drug level data were analyzed using WinNonlin software package; Model 201 (for i.v. bolus administration);was used for the analysis of i.v. data, and Model 200 (for extravascular administration) was used for the analysis of the p.o. data. […]

## Cc1cc(C(=O)O)nc(N2C[C@H]3C[C@@H](c4ccccc4C(F)(F)F)C[C@H]3C2)n1 [BPN-14136]
[1]
  off-target activity within standard screening panel: no significant off-target activity
hERG channel
  off-target activity at the hERG channel: no significant off-target activity
[2]
  hepatocyte CLint at 1 μM: 0.7 µL/min/1e6 cells
PXR
  PXR activation: no PXR activation
[3]
  IC50: > 34 µM
[4]
  stability in liver microsomes, % remaining at 30 min: > 90%
Plasma RBP4; single 1 mg kg^−1 i.v. dose
  plasma RBP4 reduction: 84%
Plasma RBP4; single 5 mg kg^−1 oral dose, 24 h
  RBP4 reduction: 97%
Plasma RBP4; single 5 mg kg^−1 oral dose, 36 h
  RBP4 reduction: 94%
Plasma RBP4; single 5 mg kg^−1 oral dose, 48 h
  RBP4 reduction: 91%
Plasma RBP4; single 5 mg kg^−1 oral dose, at 12 hours after dosing
  maximum decrease in plasma RBP4: 99%

Reference: publication PMC6980506, “Comparative pharmacokinetics and pharmacodynamics of the advanced Retinol-Binding Protein 4 antagonist in dog and cynomolgus monkey” (PLoS ONE, 2020)
